Source: US6576632B1, “Biaryl compounds useful as anticancer agents” (Pfizer Inc, priority 1999, dated 2003)

- melting point: 171 to 172 °C
Structure (SMILES): O=C(O)c1cccc(-c2cccc(CC(=O)N(Cc3ccccc3)[C@@H]3c4ccccc4CC[C@H]3Cc3ccccc3)c2)c1 (relative stereo) [Example 1, trans-3′-{[Benzyl-(2-benzyl-1,2,3,4-tetrahydro-naphthalen-1-yl)-carbamoyl]-methyl}-biphenyl-3-carboxylic acid]
